Measurements published in patent US5686448A (priority 1995, dated 1997).
Where two headings read alike, the source gives them in different places.

Experiments:
HSV-1 (McKrae strain) = settings: 20 mg/ml
cell-free HSV virus = settings: 20 mg/ml
Procedure: Both mixtures were maintained at 4° C. for 30 minutes, 60 minutes, or 90 minutes. 0.3 ml of the solutions were plated onto susceptible cell cultures and incubated at 37° C. for 36 hours. All cultures were stained and compared to the virus control.

[1] = Source text: Patient B is a person diagnosed as having both HSV type 1 (expressed as oral lesions) and HSV type 2 (expressed as penile lesions).
Patient E is a person who weighed 93 kg when they reported for treatment.
Patient K is a person who weighed 59 kg. when they reported for treatment. They were diagnosed as having HSV type 2. They described a history of lesions on the buttocks and genital region with attacks occurring monthly in cooler weather and weekly in warmer weather.

With `CC[N+](CC)(CC)CC.[Cl-]` [TEAC, tetraethylammonium chloride] as the compound, how does the virus yield (HSV-1 (McKrae strain); cell, 6 hours P.I., 10^-1) read?
The virus yield was 2 PFU/ml.

What about the virus yield (HSV-1 (McKrae strain); cell, 6 hours P.I., 10^-2) of the same compound?
Its virus yield is 5 PFU/ml.

What about the virus yield (HSV-1 (McKrae strain); cell, 6 hours P.I., Und.) of the same compound?
Its virus yield is 12 PFU/ml.

What about the virus yield (HSV-1 (McKrae strain); cell, 10 hours P.I., 10^-1) of the same compound?
Its virus yield is 3 PFU/ml.

And the virus yield (HSV-1 (McKrae strain); cell, 10 hours P.I., 10^-2)?
The virus yield was 0 PFU/ml.

And the virus yield (HSV-1 (McKrae strain); cell, 10 hours P.I., Und.)?
Its virus yield is 13 PFU/ml.

And the virus yield (HSV-1 (McKrae strain); cell, 20 hours P.I., 10^-1)?
Its virus yield is 5 PFU/ml.

And the virus yield (HSV-1 (McKrae strain); cell, 20 hours P.I., 10^-2)?
The virus yield was 0 PFU/ml.

And the virus yield (HSV-1 (McKrae strain); cell, 20 hours P.I., Und.)?
Its virus yield is 42 PFU/ml.

And the virus yield (HSV-1 (McKrae strain); cell, 24 hours P.I., 10^-1)?
The virus yield was 32 PFU/ml.

And the virus yield (HSV-1 (McKrae strain); cell, 24 hours P.I., 10^-2)?
Its virus yield is 10 PFU/ml.

What about the virus yield (HSV-1 (McKrae strain); cell, 24 hours P.I., Und.) of the same compound?
The virus yield was 58 PFU/ml.

And the virus yield (HSV-1 (McKrae strain); cell, 28 hours P.I., 10^-1)?
Its virus yield is “TMTC”.

What about the virus yield (HSV-1 (McKrae strain); cell, 28 hours P.I., 10^-2) of the same compound?
The virus yield was 15 PFU/ml.

What about the virus yield (HSV-1 (McKrae strain); cell, 28 hours P.I., Und.) of the same compound?
The virus yield was “W.O”.

What about the virus yield (HSV-1 (McKrae strain); supernatant, 6 hours P.I., 10^-1) of the same compound?
Its virus yield is 0 PFU/ml.

And the virus yield (HSV-1 (McKrae strain); supernatant, 6 hours P.I., 10^-2)?
Its virus yield is 0 PFU/ml.

What about the virus yield (HSV-1 (McKrae strain); supernatant, 6 hours P.I., 10^-3) of the same compound?
The virus yield was 0 PFU/ml.

What about the virus yield (HSV-1 (McKrae strain); supernatant, 10 hours P.I., 10^-1) of the same compound?
Its virus yield is 0 PFU/ml.

What about the virus yield (HSV-1 (McKrae strain); supernatant, 10 hours P.I., 10^-2) of the same compound?
Its virus yield is 0 PFU/ml.

What about the virus yield (HSV-1 (McKrae strain); supernatant, 10 hours P.I., 10^-3) of the same compound?
The virus yield was 0 PFU/ml.

What about the virus yield (HSV-1 (McKrae strain); supernatant, 20 hours P.I., 10^-1) of the same compound?
The virus yield was 0 PFU/ml.

What about the virus yield (HSV-1 (McKrae strain); supernatant, 20 hours P.I., 10^-2) of the same compound?
The virus yield was 0 PFU/ml.

What about the virus yield (HSV-1 (McKrae strain); supernatant, 20 hours P.I., 10^-3) of the same compound?
Its virus yield is 0 PFU/ml.

And the virus yield (HSV-1 (McKrae strain); supernatant, 24 hours P.I., 10^-1)?
The virus yield was 0 PFU/ml.

What about the virus yield (HSV-1 (McKrae strain); supernatant, 24 hours P.I., 10^-2) of the same compound?
Its virus yield is 0 PFU/ml.

What about the virus yield (HSV-1 (McKrae strain); supernatant, 24 hours P.I., 10^-3) of the same compound?
The virus yield was 0 PFU/ml.

What about the virus yield (HSV-1 (McKrae strain); supernatant, 28 hours P.I., 10^-1) of the same compound?
The virus yield was 0 PFU/ml.

And the virus yield (HSV-1 (McKrae strain); supernatant, 28 hours P.I., 10^-2)?
Its virus yield is 0 PFU/ml.

What about the virus yield (HSV-1 (McKrae strain); supernatant, 28 hours P.I., 10^-3) of the same compound?
The virus yield was 0 PFU/ml.

What about the “inactivation of cell-free virus” value (cell-free HSV virus) of the same compound?
Its value is “does not inactivate the virus”.

What about the side effects ([1]; Patient A, first infusion 2.8 cc) of the same compound?
The side effects was “some blurred vision and slight dizziness on rising to the seated position”.

What about the side effects ([1]; Patient A, second infusion 3.2 cc) of the same compound?
Its side effects is “some blurred vision”.

What about the drug related effects ([1]; Patient B, 3.7 cc (5 mg/kg)) of the same compound?
The drug related effects was “blurred vision, dryness of the mouth, and unsteady gait”.

And the “time to cessation of drug related effects after infusion” value ([1]; Patient B, 3.7 cc (5 mg/kg))?
Its value is 10 to 15 min.

And the side effects ([1]; Patient C, 3.85 cc (5 mg/kg))?
The side effects was “slightly blurred vision”.

What about the side effects ([1]; Patient D, 2.8 cc (5 mg/kg)) of the same compound?
The side effects was “dry mouth and transient blurred vision”.

And the side effects ([1]; Patient E, 4.8 cc (5 mg/kg))?
Its side effects is “slightly blurred vision”.

What about the reddening of lip ([1]; Patient G, 4.3 cc) of the same compound?
The reddening of lip was “some reddening of the lip”.

What about the side effects ([1]; Patient J, 3.6 cc (5.5 mg/kg)) of the same compound?
The side effects was “some blurred vision”.

What about the side effects ([1]; Patient K, first infusion 3.1 cc) of the same compound?
Its side effects is “some blurred vision”.

What about the side effects ([1]; Patient K, second infusion 3.4 cc) of the same compound?
Its side effects is “blurred vision”.

What about the “duration of feeling badly following treatment” value ([1]; Patient L, 2.9 cc (5.5 mg/kg)) of the same compound?
Its value is 24 to 36 h.

What about the side effects ([1]; Patient L, 2.9 cc (5.5 mg/kg)) of the same compound?
The side effects was “some blurred vision”.
